Experimental data: patent US20040029823A1, “Antisense oligonucleotide compositions and methods for the modulation of JNK proteins” (priority 1997, published 2004)
Strand notation (5' to 3'): a small letter for the sugar, then the base; units joined by * are phosphorothioate-linked, units joined directly phosphodiester-linked; [ ] holds rarer units or linkages, { } end groups; capitals alone tell only the bases. e = 2'-O-(2-methoxyethyl) (MOE); [5mC] = 5-methylcytosine; d = 2'-deoxy (DNA)

What was measured:
JNK1 mRNA = assay: Northern assay of JNK1 mRNA expression in A549 cells; assay type: cell-based, human; details: for % EXPRESSION: JNK1 mRNA, A549 cells, 400 nM oligonucleotide, relative to LIPOFECTIN-only control; for Normalized % Control: JNK1 mRNA dose response; for % INHIBITION: JNK1 mRNA time course
Procedure: (§1) In order to evaluate the activity of potential JNK-modulating oligonucleotides, human lung carcinoma cell line A549 (American Type Culture Collection, Rockville, Md. No. ATCC CCL-185) cells or other cell lines as indicated in the Examples, were grown and treated with oligonucleotides or control solutions as detailed below. After harvesting, cellular extracts were prepared and examined for specific JNK mRNA levels or JNK protein levels (i.e., Northern or Western assays, respectively). In all cases, “% expression” refers to the amount of JNK-specific signal in an oligonucleotide-treated cell relative to an untreated cell (or a cell treated with a control solution that lacks oligonucleotide), and “% inhibition” is calculated as
(§2) 100%−% Expression =% Inhibition.
(§3) Northern Assays: The mRNA expression of each JNK protein was determined by using a nucleic acid probe specifically hybridizable thereto. Nucleic acid probes specific for JNK1, JNK2 and JNK3 are described in Examples 3, 4 and 5, respectively. The probes were radiolabelled by means well known in the art (see, e.g., Short Protocols in Molecular Biology, 2nd Ed., Ausubel et al., Eds., John Wiley & Sons, New York, 1992, pages 3-11 to 2-3-44 and 4-17 to 4-18; Ruth, Chapter 6 In: Methods in Molecular Biology, Vol. 26: Protocols for Oligonucleotide Conjugates, Agrawal, ed., Humana Press Inc., Totowa, N.J., 1994, pages 167-185; and Chapter 10 In: Molecular Cloning: A Laboratory Manual, 2nd Ed., Sambrook et al., Eds., pages 10.1-10.70). The blots were stripped and reprobed with a ^32P-labeled glyceraldehyde 3-phosphate dehydrogenase (G3PDH) probe (Clontech Laboratories, Inc., Palo Alto, Calif.) in order to confirm equal loading of RNA and to allow the levels of JNK transcripts to be normalized with regard to the G3PDH signals.
(§4) A549 cells were grown in T-75 flasks until 80-90% confluent. At this time, the cells were washed twice with 10 mL of media (DMEM), followed by the addition of 5 mL of DMEM containing 20 μg/mL of LIPOFECTIN™ (i.e., 1:1 (w/w) DOTMA/DOPE, Life Technologies, Gaithersburg, Md.; DOTMA=N-[1-(2,3-dioleyoxy)propyl]-N,N,N-trimethylammonium chloride; DOPE=dioleoyl phosphatidylethanolamine). The oligonucleotides were added from a 10 μM stock solution to a final concentration of 400 nM, and the two solutions were mixed by swirling the flasks. As a control, cells were treated with LIPOFECTIN™ without oligonucleotide under the same conditions and for the same times as the oligonucleotide-treated samples. After 4 hours at 37° C., the medium was replaced with fresh DMEM containing 10% serum. The cells were allowed to recover for 18 hours. Total cellular RNA was then extracted in guanidinium, subject to gel electrophoresis and transferred to a filter according to techniques known in the art (see, e.g., Chapter 7 In: Molecular Cloning: A Laboratory Manual, 2nd Ed., Sambrook et al., Eds., pages 7.1-7.87, and Short Protocols in Molecular Biology, 2nd Ed., Ausubel et al., Eds., John Wiley & Sons, New York, 1992, pages 2-24 to 2-30 and 4-14 to 4-29). Filters were typically hybridized overnight to a probe specific for the particular JNK gene of interest in hybridization buffer (25 mM KPO4, pH 7.4; 5×SSC; 5× Denhardt's solution, 100 μg/ml Salmon sperm DNA and 50% formamide) (Alahari et al., Nucl. Acids Res., 1993, 21, 4079). This was followed by two washes with 1×SSC, 0.1% SDS and two washes with 0.25×SSC, 0.1% SDS. Hybridizing bands were visualized by exposure to X-OMAT AR film and quantitated using a PHOSPHORIMAGER™ essentially according to the manufacturer's instructions (Molecular Dynamics, Sunnyvale, Calif.)
B. JNK1-specific probes: In initial screenings of a set of oligonucleotides derived from the JNK1 sequence (Table 2) for biological activity, a cDNA clone of JNK1 (Derijard et al., Cell, 1994, 76, 1025) was radiolabeled and used as a JNK1-specific probe in Northern blots. […]

JNK2 mRNA = assay: Northern assay of JNK2 mRNA expression in A549 cells; assay type: cell-based, human; details: for % EXPRESSION: relative to LIPOFECTIN-only control
Procedure: as §1, §2, §3, §4
B. JNK2-specific probes: In initial screenings of a set of oligonucleotides derived from the JNK2 sequence (Table 9) for biological activity, a cDNA clone of JNK2 (Kallunki et al., Genes & Development, 1994, 8, 2996) was radiolabeled and used as a JNK2-specific probe in Northern blots. […]

[1] = JNK2 mRNA, A549 cells, 400 nM oligonucleotide
[2] = JNK2 mRNA dose response, 100 nM
[3] = JNK2 mRNA dose response, 200 nM
[4] = JNK2 mRNA dose response, 400 nM
[5] = JNK2 mRNA time course, t=0 h after 4 hour treatment
[6] = JNK2 mRNA, chemically modified oligonucleotides, dose 100 nM
[7] = JNK2 mRNA, chemically modified oligonucleotides, dose 400 nM
[8] = JNK2 mRNA, A549 cells, 400 nM oligonucleotide, 100% - % expression

Substance: 12552 (antisense CGGGTGTTGGAGAGCTTCAT; DNA, all phosphorothioate, methylation of C not given here) [compound 12552]
- % EXPRESSION (JNK1 mRNA): 34%

Substance: 12553 (antisense TTTGGTGGTGGAGCTTCTGC; DNA, all phosphorothioate, methylation of C not given here) [compound 12553]
- % EXPRESSION (JNK1 mRNA): 25%

Substance: 12554 (antisense GGCTGCCCCCGTATAACTCC; DNA, all phosphorothioate, methylation of C not given here) [compound 12554]
- % EXPRESSION (JNK1 mRNA): 11%

Substance: 12555 (antisense TGCTAAAGGAGAGGGCTGCC; DNA, all phosphorothioate, methylation of C not given here) [compound 12555]
- % EXPRESSION (JNK1 mRNA): 27%

Substance: 12556 (antisense AGGCCAAAGTCGGATCTGTT; DNA, all phosphorothioate, methylation of C not given here) [compound 12556]
- % EXPRESSION (JNK1 mRNA): 41%

Substance: 12557 (antisense CCACCCCCCGATGGCCCAAG; DNA, all phosphorothioate, methylation of C not given here) [compound 12557]
- % EXPRESSION (JNK1 mRNA): 29%

Substance: 12558 (antisense dG*dT*dT*dT*dC*dA*dG*dA*dT*dC*dC*dC*dT*dC*dG*dC*dC*dC*dG*dC) [compound 12558]
- % EXPRESSION (JNK2 mRNA; [1]): 15%

Substance: 12559 (antisense dT*dG*dC*dA*dG*dC*dA*dC*dA*dA*dA*dC*dA*dA*dT*dC*dC*dC*dT*dT) [compound 12559]
- % EXPRESSION (JNK2 mRNA; [1]): 28%

Substance: 12560 (antisense GTCCGGGCCAGGCCAAAGTC; DNA, all phosphorothioate, methylation of C not given here) [compound 12560]
- Normalized % Control (JNK2 mRNA; JNK2 mRNA dose response, 50 nM): 68.1%
- Normalized % Control (JNK2 mRNA; [2]): 50.0%
- Normalized % Control (JNK2 mRNA; [3]): 25.1%
- Normalized % Control (JNK2 mRNA; [4]): 14.2%
- % INHIBITION (JNK2 mRNA; [5]): 79.8%
- Normalized % Control (JNK2 mRNA; [5]): 20.2%
- % INHIBITION (JNK2 mRNA; JNK2 mRNA time course, t=4 h): 88.9%
- Normalized % Control (JNK2 mRNA; JNK2 mRNA time course, t=4 h): 11.1%
- % INHIBITION (JNK2 mRNA; JNK2 mRNA time course, t=12 h): 78.2%
- Normalized % Control (JNK2 mRNA; JNK2 mRNA time course, t=12 h): 21.8%
- % INHIBITION (JNK2 mRNA; JNK2 mRNA time course, t=48 h): 57.3%
- Normalized % Control (JNK2 mRNA; JNK2 mRNA time course, t=48 h): 42.7%
- % INHIBITION (JNK2 mRNA; JNK2 mRNA time course, t=72 h): (0.0) %
- Normalized % Control (JNK2 mRNA; JNK2 mRNA time course, t=72 h): 116.8%
- % EXPRESSION (JNK2 mRNA; [1]): 11%
- Normalized % Control (JNK2 mRNA; [6]): 62.1%
- Normalized % Control (JNK2 mRNA; [7]): 31.4%

Substance: 12561 (antisense dC*dA*dG*dG*dA*dT*dG*dA*dC*dT*dT*dC*dG*dG*dG*dC*dG*dC*dC*dC) [compound 12561]
- % EXPRESSION (JNK2 mRNA; [1]): 60%
- % INHIBITION (JNK2 mRNA; [8]): 40%

Substance: 12562 (antisense dG*dC*dT*dC*dT*dC*dC*dC*dA*dT*dG*dA*dT*dG*dC*dA*dA*dC*dC*dC) [compound 12562]
- % EXPRESSION (JNK2 mRNA; [1]): 89%
- % INHIBITION (JNK2 mRNA; [8]): 11%

Substance: 12563 (antisense dA*dT*dG*dG*dG*dT*dG*dA*dC*dG*dC*dA*dG*dA*dG*dC*dT*dT*dC*dG) [compound 12563]
- % EXPRESSION (JNK2 mRNA; [1]): 22%

Substance: 12564 (antisense dC*dT*dG*dC*dT*dG*dC*dA*dT*dC*dT*dG*dA*dA*dG*dG*dC*dT*dG*dA) [compound 12564]
- % EXPRESSION (JNK2 mRNA; [1]): 28%

Substance: 12565 (antisense dT*dG*dA*dG*dA*dA*dG*dG*dA*dG*dT*dG*dG*dC*dG*dT*dT*dG*dC*dT) [compound 12565]
- % EXPRESSION (JNK2 mRNA; [1]): 19%

Substance: 12566 (antisense dT*dG*dC*dT*dG*dT*dC*dT*dG*dT*dG*dT*dC*dT*dG*dA*dG*dG*dC*dC) [compound 12566]
- % EXPRESSION (JNK2 mRNA; [1]): 42%

Substance: 12568 (antisense dC*dA*dT*dT*dT*dC*dA*dG*dG*dC*dC*dC*dA*dC*dG*dG*dA*dG*dG*dT) [compound 12568]
- % EXPRESSION (JNK2 mRNA; [1]): 20%

Substance: 12569 (antisense dG*dG*dT*dC*dT*dG*dA*dA*dT*dA*dG*dG*dG*dC*dA*dA*dG*dG*dC*dA) [compound 12569]
- % EXPRESSION (JNK2 mRNA; [1]): 13%

Substance: 12570 (antisense dG*dG*dG*dC*dA*dA*dG*dT*dC*dC*dA*dA*dG*dC*dA*dA*dG*dC*dA*dT) [compound 12570]
- % EXPRESSION (JNK2 mRNA; [1]): 24%

Substance: 14318 (sense GACTTTGGCCTGGCCCGGAC; DNA, all phosphorothioate, methylation of C not given here) [compound 14318]
- Normalized % Control (JNK2 mRNA; JNK2 mRNA dose response, 50 nM): 87.1%
- Normalized % Control (JNK2 mRNA; [2]): 89.8%
- Normalized % Control (JNK2 mRNA; [3]): 92.1%
- Normalized % Control (JNK2 mRNA; [4]): 99.6%

Substance: 14319 (GTGCGCGCGAGCCCGAAATC; DNA, all phosphorothioate, methylation of C not given here) [compound 14319]
- Normalized % Control (JNK2 mRNA; JNK2 mRNA dose response, 50 nM): 90.4%
- Normalized % Control (JNK2 mRNA; [2]): 93.7%
- Normalized % Control (JNK2 mRNA; [3]): 110.2%
- Normalized % Control (JNK2 mRNA; [4]): 100.0%

Substance: 14320 (sense CCAAGCGGGCCTACAGAGAG; DNA, all phosphorothioate, methylation of C not given here) [compound 14320]
- Normalized % Control (JNK1 mRNA; 50 nM): 103.6%
- Normalized % Control (JNK1 mRNA; 100 nM): 76.3%
- Normalized % Control (JNK1 mRNA; 200 nM): 98.9%
- Normalized % Control (JNK1 mRNA; 400 nM): 97.1%

Substance: 14321 (CTTTCCGTTGGACCCCTGGG; DNA, all phosphorothioate, methylation of C not given here) [compound 14321]
- Normalized % Control (JNK1 mRNA; 50 nM): 91.8%
- Normalized % Control (JNK1 mRNA; 100 nM): 94.1%
- Normalized % Control (JNK1 mRNA; 200 nM): 100.2%
- Normalized % Control (JNK1 mRNA; 400 nM): 79.2%

Substance: 15352 (antisense eG*eT*e[5mC]*e[5mC]*eG*eG*eG*e[5mC]*e[5mC]*eA*eG*eG*e[5mC]*e[5mC]*eA*eA*eA*eG*eT*e[5mC]) [compound 15352]
- Normalized % Control (JNK2 mRNA; [6]): 132.4%
- Normalized % Control (JNK2 mRNA; [7]): 158.4%

Substance: 15354 (antisense eGeTe[5mC]e[5mC]eG*dG*dG*dC*dC*dA*dG*dG*dC*dC*eAeAeAeGeTe[5mC]) [compound 15354]
- Normalized % Control (JNK2 mRNA; [6]): 38.3%
- Normalized % Control (JNK2 mRNA; [7]): 17.1%
- inhibition of JNK2 mRNA expression (JNK2 mRNA; chemically modified derivatives of ISIS 12560, 400 nM (text to Table 12)): approximately 80%

Substance: CTC-TCT-GTA-GGC-CCG-CTT-GG (CTCTCTGTAGGCCCGCTTGG; chemistry not given here) [ISIS 12539]
- % INHIBITION (JNK1 mRNA; t=0 h after 4 hour treatment): greater than 85%
- % INHIBITION (JNK1 mRNA; t=4 h): about 95%
- % INHIBITION (JNK1 mRNA; t=12 h): greater than or equal to 80%
- % INHIBITION (JNK1 mRNA; t=48 h): greater than or equal to 80%
- % INHIBITION (JNK1 mRNA; time 272 h [sic] (t=72 h in text)): ≥ 60%
